Data: patent US11207291B2, “Antimicrobial compositions comprising cannabinoids and methods of using the same” (Graphium Biosciences, Inc., priority 2017, dated 2021)
≈ marks a conversion by molar mass, not a printed value. Like-named read-outs stand apart in the source and are kept apart here.

How the values were obtained:
[1] = system: Staphylococcus aureus (MRSA); assay: microbe, parasite or virus in culture; format: cell-based
Bacteroides fragilis = assay: Broth microdilution MIC, anaerobic bacteria (Example 1); format: cell-based; conditions: Bacteroides fragilis
B. bifidum MMX 3965 = assay: MIC/MBC testing (Example 5); format: cell-based
Escherichia coli = assay: Broth microdilution MIC, aerobic bacteria (Example 4); format: cell-based; conditions: ATCC25922
Lactobacillus jensenii [2] = assay: Broth microdilution MIC, anaerobic bacteria (Example 4); format: cell-based; conditions: isolate MMX 4149
[3] = Compound precipitation in uninoculated solubility controls (Example 4); format: physicochemical
Experimental: Un-inoculated solubility control plates for each test media and drug were incubated in parallel with test plates and observed for evidence of drug precipitation. MICs were read where visible growth of the organism was inhibited.

Pseudomonas aeruginosa [4] = assay: Broth microdilution MIC, aerobic bacteria (Example 1); format: cell-based
[5] = Analysis of intestinal contents, plasma and brains after oral CBD or CBD-glycosides (Example 3); format: in vivo; conditions: mouse, oral gavage; 2 hours; data not shown
Experimental: In order to investigate the metabolism and decoupling of CBD-glycosides in the large intestine, an aqueous solution of a mixture of CBD-glycosides was administered to a mouse by oral gavage. As a control, a solution of CBD in cremophor, ethanol, and saline was administered to a second mouse. The animals were each sacrificed at 2 hours. Following termination and tissue harvest, the intestinal contents were then extracted and analyzed by C18 reverse phase HPLC. The mice employed in this example were eight week old male Swiss mice fasted for 12 hours prior to administration of the solutions.
The resulting extracts were analyzed by LCMS performed using a Shimadzu LC-MS 2010 EV. Electrospray ionization (ESI) was performed in negative mode. The column was a Silia Chrom XDB C18 5 um, 150 A, 4.6×50 mm. The method was 12 min 5 to 95 H2O:ACN. Acetic acid and formic acid were used as sample additives during analysis, and the injection volume was 20 μl.

Candida parapsilosis [6] = assay: Broth microdilution MIC, yeast and fungi (Example 1); format: cell-based; conditions: Lodderomyces parapsilosis, ATCC22019, Example 1, isolate MMX 2323 (ATCC 22019)
Candida parapsilosis [7] = assay: Broth microdilution MIC, fungi (Example 4); format: cell-based; conditions: Lodderomyces parapsilosis
B. fragilis ATCC 25285 = assay: MIC/MBC testing (Example 5); format: cell-based; conditions: Bacteroides fragilis, ATCC25285
Acinetobacter baumannii = assay: Broth microdilution MIC, aerobic bacteria (Example 1); format: cell-based
B. longum MMX 3968 = assay: MIC/MBC testing (Example 5); format: cell-based
[8] = system: Staphylococcus aureus (MSSA); assay: Broth microdilution MIC, aerobic bacteria (Example 1); format: cell-based; conditions: Staphylococcus aureus, ATCC 29213 / MSSA, isolate MMX 100 (ATCC 29213), read-out: MIC
E. faecalis ATCC 29212 = assay: MIC/MBC testing (Example 5); format: cell-based
Clostridium difficile = assay: Broth microdilution MIC, anaerobic bacteria (Example 4); format: cell-based; conditions: Clostridioides difficile
Bifidobacterium longum = assay: Broth microdilution MIC, anaerobic bacteria (Example 1); format: cell-based; conditions: Bifidobacterium longum
Pseudomonas aeruginosa [9] = assay: Broth microdilution MIC, aerobic bacteria (Example 4); format: cell-based
gram-negative aerobes [10] = assay: Broth microdilution MIC, summary (Example 4); format: cell-based; conditions: tested alone
[11] = system: Staphylococcus aureus (MRSA); assay: microbe, parasite or virus in culture; format: cell-based; conditions: Staphylococcus aureus, MRSA
Lactobacillus jensenii [12] = assay: Broth microdilution MIC, anaerobic bacteria (Example 1); format: cell-based; conditions: Lactobacillus jensenii
gram-negative aerobes [13] = assay: Broth microdilution MIC, text summary (Example 1); format: cell-based
Streptococcus pyogenes = assay: Broth microdilution MIC, aerobic bacteria (Example 4); format: cell-based
[14] = system: Klebsiella pneumoniae (KPC-2); format: cell-based; conditions: Example 1 summary of findings; Klebsiella
[15] = Bifidobacterium bifidum, MMX3965
[16] = ratios of 1-4 are indicative of bactericidal activity
[17] = Bifidobacterium longum, MMX3968
[18] = Enterococcus faecalis, ATCC29212
[19] = Example 1 summary of findings, read-out: inhibits the growth (IC50 values)

C=C(C)[C@@H]1CCC(C)=C[C@H]1c1c(O)cc(CCCCC)cc1O [CBD, cannabidiol]
MIC [1]: 2 µg/mL (≈ 6.36 µM) | MIC (Bacteroides fragilis; ATCC5285): 32 µg/mL (≈ 102 µM) | IC50 (Bacteroides fragilis; Example 1 summary of findings, read-out: inhibits the growth (IC50)): 32 µg/mL (≈ 102 µM) | MBC (B. bifidum MMX 3965; [15]): 32 µg/mL (≈ 102 µM) | MIC (B. bifidum MMX 3965; [15]): 16 µg/mL (≈ 50.9 µM) | MBC:MIC (B. bifidum MMX 3965; [16]): 2 | MIC (Escherichia coli): > 128 µg/mL | MIC (Lactobacillus jensenii [2]): > 128 µg/mL | precipitation observed (type) ([3]; Brucella Broth): none | precipitation observed (type) ([3]; MHB II): none | precipitation observed (type) ([3]; MHB II with Blood): none | precipitation observed (type) ([3]; RPMI): none | effect on the gram-negative pathogen (Pseudomonas aeruginosa [4]; Example 1 summary of findings, Pseudomonas): did not have any effect | MIC (Pseudomonas aeruginosa [4]; Pseudomonas aeruginosa, Example 1, isolate MMX 1380, read-out: MIC): > 256 µg/mL | presence of CBD in plasma and brains (HPLC) [5]: CBD was only present in the control animal that received CBD aglycone | MIC (Candida parapsilosis [6]; 24 hr, read-out: MIC at 24 hr): > 256 µg/mL | MIC (Candida parapsilosis [6]; 48 hr, read-out: MIC at 48 hr): > 256 µg/mL | MIC (Candida parapsilosis [7]; ATCC22019, 24 h, read-out: MIC at 24 hr): > 128 µg/mL | MIC (Candida parapsilosis [7]; ATCC22019, Example 4, 48 hr, isolate MMX 2323 (ATCC 22019), read-out: MIC at 48 hr): > 128 µg/mL | MIC (B. fragilis ATCC 25285): 16 µg/mL (≈ 50.9 µM) | MIC (Acinetobacter baumannii; Acinetobacter baumannii): > 256 µg/mL | effect on the gram-negative pathogen (Acinetobacter baumannii; Example 1 summary of findings, Acinetobacter): did not have any effect | MBC (B. longum MMX 3968; [17]): 64 µg/mL (≈ 204 µM) | MIC (B. longum MMX 3968; [17]): 16 µg/mL (≈ 50.9 µM) | MBC:MIC (B. longum MMX 3968; [16]): 4 | MIC [8]: 2 µg/mL (≈ 6.36 µM) | MBC (E. faecalis ATCC 29212; [18]): 2 µg/mL (≈ 6.36 µM) | MIC (E. faecalis ATCC 29212; [18]): 2 µg/mL (≈ 6.36 µM) | MBC:MIC (E. faecalis ATCC 29212; [16]): 1 | MIC (Clostridium difficile; ATCC700057, Example 4, isolate MMX 4381 (ATCC 700057)): 64 µg/mL (≈ 204 µM) | MIC (Clostridium difficile; Example 4, isolate MMX 8330): 64 µg/mL (≈ 204 µM) | MIC (Clostridium difficile; Example 4, isolate MMX 8333): 64 µg/mL (≈ 204 µM) | MIC (Bifidobacterium longum; Example 1, isolate MMX 3968, read-out: MIC): 32 µg/mL (≈ 102 µM) | IC50 (Bifidobacterium longum; [19]): 32 µg/mL (≈ 102 µM) | MIC (Pseudomonas aeruginosa [9]): > 128 µg/mL | activity against Gram-negative aerobes (gram-negative aerobes [10]): inactive | MIC [11]: 2 µg/mL (≈ 6.36 µM) | IC50 ([11]; read-out: inhibits the growth (IC50)): 2 µg/mL (≈ 6.36 µM) | MIC (Lactobacillus jensenii [12]; Example 1, isolate MMX 4149, read-out: MIC): 64 µg/mL (≈ 204 µM) | IC50 (Lactobacillus jensenii [12]; [19]): 64 µg/mL (≈ 204 µM) | activity against gram-negative aerobic bacteria (gram-negative aerobes [13]): inactive | MIC (Streptococcus pyogenes): 32 µg/mL (≈ 102 µM) | effect on the gram-negative pathogen [14]: did not have any effect
